Article PMC9501232, “Novel 4-Azapregnene Derivatives as Potential Anticancer Agents: Synthesis, Antiproliferative Activity and Molecular Docking Studies” (Molecules, 2022)

Assays:
PC-3 cells = test: MTT cell proliferation assay, PC-3; type: cell-based, human; conditions: PC-3, 30 µM, 72 h, average ± SD
Protocol: (§1) Cell lines, namely LNCaP, PC-3, T47-D and NHDF were obtained from American Type Culture Collection (ATCC; Manassas, VA, USA) and cultured in 75 cm^2 culture flasks at 37 °C in a humidified air incubator with 5% CO2. LNCaP, PC-3 and T47-D cells, which were used in passages 20th to 27th, 25th to 29th and 10th to 15th, respectively, were cultured in RPMI 1640 medium (Sigma-Aldrich, Inc., St. Louis, MO, USA) with 10% fetal bovine serum (FBS; Sigma-Aldrich, Inc. St. Louis, MO, USA) and 1% of the antibiotic mixture of 10,000 IU/mL penicillin G and […] of streptomycin (Sp, Sigma-Aldrich, Inc. St. Louis, MO, USA). Finally, NHDF cells (Normal Human Dermal Fibroblasts) were cultured in RPMI 1640 medium supplemented with 10% FBS, 2 mM L-glutamine, 10 mM HEPES, 1 mM sodium pyruvate and 1% of an antibiotic/antimycotic mixture (10,000 U/mL penicillin G, 100 mg/mL streptomycin and 25 µg/mL amphotericin B) (Ab; Sigma-Aldrich, Inc. St. Louis, MO, USA), and these cells were used in passages 10 to 12. For all cell types, the medium was renewed every 2–3 days until cells reach nearly the confluence state. Then, they were detached gently by trypsinization (trypsin-EDTA solution: 0.125 g/L of trypsin and 0.02 g/L of EDTA).
(§2) All the stock solutions were prepared by dissolving compounds in dimethyl sulfoxide (DMSO; Sigma-Aldrich, Inc., St. Louis, MO, USA) at 10 mM and stored at 4 °C. From these solutions, the several diluted compounds solutions in different concentrations were freshly prepared in a complete culture medium before each experiment.
(§3) As previously referred, cells were trypsinized after reaching a near confluence state and counted by the trypan blue exclusion assay in a Neubauer chamber. Then, 100 µL of cell suspension/well with an initial density of 2 × 10^4 cells/mL were seeded in 96-well culture plates (Nunc, Apogent, Denmark) and left to adhere for 48 h. After cells adherence, the medium was replaced by the distinct solutions of the compounds in the study (30 µM for preliminary studies and 0.01, 0.1, 1, 10, 50 and 100 µM for concentration–response studies) in the appropriate medium for approximately 72 h. 5-FU and finasteride were used as positive controls and untreated cells were used as the negative control. Each experiment was performed in quadruplicate and independently performed at least two times. The in vitro antiproliferative effects were evaluated by the MTT assay (Sigma-Aldrich, Inc. St. Louis, USA). After the incubation period, the medium was removed and 100 µL of phosphate buffer saline (NaCl 137 mM, KCl 2.7 mM, Na2HPO4 10 mM and KH2PO4 1.8 mM in deionized water and pH adjusted to 7.4) were used to wash the cells. Then, 100 µL of the MTT solution (5 mg/mL) was prepared in the appropriate serum-free medium and was added to each well, followed by incubation for 4 h at 37 °C. Hereafter, the MTT containing medium was removed and the formazan crystals were dissolved in DMSO. Then the absorbance was measured at 570 nm using a microplate spectrophotometer BIO-RAD xMarkTM. Cell viability values were expressed as percentages relative to the absorbance determined in the cells used as negative controls.
(§4) The data are expressed as a mean ± standard deviation (SD) and differences between groups were considered statistically significant when p < 0.05. The IC50 values were determined through sigmoidal fitting analysis with variable slope and considering a 95% confidence level. All data shown are representative of at least two independent experiments.

T47-D cells = test: MTT cell proliferation assay, T47-D; type: cell-based, human; conditions: 30 µM, 72 h, average ± SD
Protocol: as §1, §2, §3, §4

[1] = system: NHDF cells (Normal Human Dermal Fibroblasts); test: MTT cell proliferation assay, NHDF; type: cell-based; conditions: 30 µM, 72 h, average ± SD
Protocol: as §1, §2, §3, §4

LNCaP cells [2] = test: Microscopic cell morphology observation; type: cell-based, human; conditions: 24 and 72 h of treatment
Protocol: In our previous work, 16E-arylidene-4-azaandrost-5-ene derivatives were synthesized, their antiproliferative effects were evaluated and further studies were performed with the most promising steroid in LNCaP cells. Due to the similarity of 16E-arylidene-4-azaandrostenes and these novel 21E-arylidene-4-azapregnene derivatives, identical studies in this cell line were performed, namely a flow cytometry assay and microscopic cell morphology observation. To assess the viability of LNCaP cells when exposed to steroid 3g, a flow cytometry assay after PI staining was performed. Cells were treated with 3g and 5-FU during 24 and 72 h, and then a microscopic cell observation was performed to assess the possible morphological alterations and cell density changes triggered by incubation with 3g and compare with controls (Figure 6).
Similar to the previous study, the analysis of cell viability was accomplished by flow cytometry after staining dead cells with propidium iodide (PI; Invitrogen, Carlsbad, USA). Succinctly, 1 mL of a cell suspension was seeded in 12-well culture plates (initial cell density of 5 × 10^4 cells/mL of LNCaP cells for 24 h assay and 2 × 10^4 cells/mL of the same cell line for 72 h assay) in a complete culture medium. […] The percentages of each region were calculated for a total of R1 + R2 + R3. […]

LNCaP cells [3] = test: MTT cell proliferation assay, LNCaP; type: cell-based, human; conditions: 30 µM, 72 h, average ± SD
Protocol: as §1, §2, §3, §4

With CC(C)(C)NC(=O)[C@H]1CC[C@H]2[C@@H]3CC[C@H]4NC(=O)C=C[C@]4(C)[C@H]3CC[C@]12C [Finasteride, reference compound] the “MTT screening, cell proliferation” value (PC-3 cells) was 78.8 ± 8.7 percentage of negative control, the “MTT screening, cell proliferation” value (T47-D cells) was 103.5 ± 17.8 percentage of negative control and the “MTT screening, cell proliferation” value [1] was 62.8 ± 5.9 percentage of negative control. The “Cell morphology and cell density” value (LNCaP cells [2]) was “cell density reduction and the preservation of healthy cells morphology” and the “MTT screening, cell proliferation” value (LNCaP cells [3]) was 88.5 ± 2.4 percentage of negative control.
